Measured values from ChEMBL document CHEMBL5360531, “Pyrazolone derivatives as potent and selective small-molecule SIRT5 inhibitors” (Eur J Med Chem, 2023).

The compounds below were run against T1, NAD-dependent protein deacylase sirtuin-5, mitochondrial (Homo sapiens, UniProt Q9NXA8) (assay: Inhibition of human SIRT5 by fluorescence based analysis).
T1 sequence (Q9NXA8 whole entry): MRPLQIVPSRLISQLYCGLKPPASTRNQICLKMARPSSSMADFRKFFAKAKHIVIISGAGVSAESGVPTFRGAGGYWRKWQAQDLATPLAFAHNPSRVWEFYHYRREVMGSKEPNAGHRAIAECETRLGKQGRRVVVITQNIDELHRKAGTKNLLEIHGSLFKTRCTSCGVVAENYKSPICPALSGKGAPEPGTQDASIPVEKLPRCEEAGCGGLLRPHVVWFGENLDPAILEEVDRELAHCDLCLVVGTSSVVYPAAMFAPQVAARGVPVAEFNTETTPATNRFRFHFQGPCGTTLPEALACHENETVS

SMILES	IC50 [µM]
COC(=O)c1ccc(/C=C2/C(=O)N(c3nc(-c4cccc(OC)c4)cs3)N=C2C)cc1	15.8
COc1ccc(-c2csc(N3N=C(C)/C(=C\c4ccc(C(=O)O)cc4)C3=O)n2)cc1	1.82
CC1=NN(c2nc(-c3ccc(Br)cc3)cs2)C(=O)/C1=C/c1ccc(Cl)cc1	12.5
CC1=NN(c2nc(-c3ccccc3F)cs2)C(=O)/C1=C/c1ccc(C(=O)O)cc1	4.18
CC1=NN(c2nc(-c3ccccc3F)cs2)C(=O)/C1=C/c1ccc(C#N)cc1	13.8
COC(=O)c1ccc(/C=C2/C(=O)N(c3nc(-c4ccc(C(F)(F)F)cc4)cs3)N=C2C)cc1	2.84
CC1=NN(c2nc(-c3ccc(C(F)(F)F)cc3)cs2)C(=O)/C1=C/c1ccc(C(=O)O)cc1	0.52
COC(=O)c1ccc(/C=C2/C(=O)N(c3nc(-c4ccc(C#N)cc4)cs3)N=C2C)cc1	5.26
CC1=NN(c2nc(-c3ccc(F)cc3)cs2)C(=O)/C1=C/c1ccc(Cl)cc1	6.28
COC(=O)c1ccc(/C=C2/C(=O)N(c3nc(-c4cccc(F)c4)cs3)N=C2C)cc1	10.6
COc1ccc(-c2csc(N3N=C(C)/C(=C\c4ccc(Cl)cc4)C3=O)n2)cc1	22.6
COc1ccccc1-c1csc(N2N=C(C)/C(=C\c3ccc(C(=O)O)cc3)C2=O)n1	5.54
COC(=O)c1ccc(/C=C2/C(=O)N(c3nc(-c4ccc(Cl)cc4)cs3)N=C2C)cc1	2.56
CC1=NN(c2nc(-c3cccc(C)c3)cs2)C(=O)/C1=C/c1ccc(C(=O)O)cc1	4.45
COC(=O)c1ccc(/C=C2/C(=O)N(c3nc(-c4cccc(C#N)c4)cs3)N=C2C)cc1	16.5
CC1=NN(c2nc(-c3ccc(Cl)cc3)cs2)C(=O)/C1=C/c1ccc(Cl)cc1	7.56
COC(=O)c1ccc(/C=C2/C(=O)N(c3nc(-c4ccccc4F)cs3)N=C2C)cc1	12.7

SMILES	IC50 [µM]
CC1=NN(c2nc(-c3cccc(C#N)c3)cs2)C(=O)/C1=C/c1ccc(C(=O)O)cc1	4.16
CC1=NN(c2nc(-c3ccc(F)cc3)cs2)C(=O)/C1=C/c1ccc(C(=O)O)cc1	0.85
COC(=O)c1ccc(/C=C2/C(=O)N(c3nc(-c4ccccc4OC)cs3)N=C2C)cc1	20.6
COC(=O)c1ccc(/C=C2/C(=O)N(c3nc(-c4ccc(C)cc4)cs3)N=C2C)cc1	6.54
COC(=O)c1ccc(/C=C2/C(=O)N(c3nc(-c4ccc(O)cc4)cs3)N=C2C)cc1	12.8
COC(=O)c1ccc(/C=C2/C(=O)N(c3nc(-c4ccc(F)cc4)cs3)N=C2C)cc1	5.83
COc1ccc(-c2csc(N3N=C(C)/C(=C\c4ccc(C)cc4)C3=O)n2)cc1	36.8
COc1cccc(-c2csc(N3N=C(C)/C(=C\c4ccc(C(=O)O)cc4)C3=O)n2)c1	3.08
COC(=O)c1ccc(/C=C2/C(=O)N(c3nc(-c4cccc(C)c4)cs3)N=C2C)cc1	20.5
CC1=NN(c2nc(-c3ccc(C)cc3)cs2)C(=O)/C1=C/c1ccc(C(=O)O)cc1	1.28
COC(=O)c1ccc(/C=C2/C(=O)N(c3nc(-c4ccc(OC)cc4)cs3)N=C2C)cc1	10.2
CC1=NN(c2nc(-c3ccc(O)cc3)cs2)C(=O)/C1=C/c1ccc(C(=O)O)cc1	1.92
CC1=NN(c2nc(-c3cccc(F)c3)cs2)C(=O)/C1=C/c1ccc(C(=O)O)cc1	1.86
CC1=NN(c2nc(-c3ccc(C#N)cc3)cs2)C(=O)/C1=C/c1ccc(C(=O)O)cc1	1.05
COC(=O)c1ccc(/C=C2/C(=O)N(c3nc(-c4ccc(Br)cc4)cs3)N=C2C)cc1	4.36
COC(=O)c1ccc(/C=C2/C(=O)N(c3nc(-c4cccc(C(F)(F)F)c4)cs3)N=C2C)cc1	2.28
CC1=NN(c2nc(-c3ccc(Br)cc3)cs2)C(=O)/C1=C/c1ccc(C(=O)O)cc1	1.72

Each compound was assayed against T1, NAD-dependent protein deacylase sirtuin-5, mitochondrial (assay: Inhibition of human SIRT5).

SMILES	IC50 [µM]
N=C(N)NCCC[C@@H]1NC(=O)CCC(=O)NCCCC[C@@H](C(N)=O)NC(=O)[C@H](CCCCNC(=S)NCCC(=O)O)NC1=O	2.2
